The target in assay [1] is T1, PfSpdS (Plasmodium falciparum, UniProt Q8II73). Description: biochemical. The class given is binding. Here is the method: Protein samples of 1 mg/ml were dialyzed overnight at 4°C against buffer containing 100 mM HEPES, pH 7.5, 250 mM NaCl. Protein concentration was determined by UV absorption (A280 = 1 for 1.3 mg/mL) immediately before loading into the calorimeter cell. […] The protein at a concentration of 0.8–30 μM was loaded into the sample cell of a VP-ITC microcalorimeter (MicroCal, Inc.). All measurements were performed at 25°C with 25 injections of the ligand of 10 μl each delivered in 20 s with 240 s delays between injections. […] Titrations of ligands into dialysis buffer were performed additionally and in case of non-negligible dilution heat the dilution profile(s) were subtracted point-by-point from the reaction profile. The dilution factor was taken into account for the binding curve fitting. Prior to titration of a second ligand into protein in presence of a first ligand, titration of dcAdoMet or MTA was carried out to saturating concentrations. […] The ligand- and buffer-subtracted integrated binding data were fitted using a single-site binding model in MicroCal Origin software.
T1 sequence (Q8II73 entry or part of it): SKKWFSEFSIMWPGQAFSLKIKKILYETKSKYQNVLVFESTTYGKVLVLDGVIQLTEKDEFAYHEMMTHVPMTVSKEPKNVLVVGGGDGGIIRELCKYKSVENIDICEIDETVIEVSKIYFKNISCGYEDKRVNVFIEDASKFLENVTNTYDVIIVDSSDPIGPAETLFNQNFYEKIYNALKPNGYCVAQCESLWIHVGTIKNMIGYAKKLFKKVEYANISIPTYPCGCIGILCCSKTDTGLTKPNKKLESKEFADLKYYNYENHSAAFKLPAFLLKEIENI
The solution conditions for which the reported parameter values apply are 100 mM HEPES pH 7.5, 250 mM NaCl, 25°C.

The target of assay [2] is T1, PfSpdS. The settings on record: cited from earlier work.
Assay [3] concerns the target T1, PfSpdS. Description: biochemical. To be noted: for inhibitory effects on PfSpdS activity: at concentrations of 0.1 or 1 mM, data not shown. The procedure:
The enzyme assays were incubated for 30 min at 37°C and terminated by addition of 100 μl of 0.4 M HClO4. The amount of spermidine formed was determined by HPLC with θ-phthaldialdehyde as the reagent essentially as described by Seiler & Knödgen.
Determination of IC50 values was performed in standard assays containing increasing concentrations of inhibitors.

Assay [4] concerns mammalian SpdS. The settings on record: cited from earlier work.
In assay [5] the test system is P. falciparum. Further details: method as in PMID 15913804. The settings on record: at micromolar concentrations; cited from earlier work.
The target of assay [6] is T1, PfSpdS. Further details: method as in PMID 18410081. To be noted: cited from earlier work.
The target of assay [7] is human SpdS. Further details: method as in PMID 21898642. To be noted: 20 mM sodium phosphate pH 7.5, 50 mM NaCl, 25°C; cited from earlier work.
Where [8] appears, read: free PfSpdS, 100 mM HEPES pH 7.5, 250 mM NaCl, 25°C.
Setting [9] is: free PfSpdS, 100 mM HEPES pH 7.5, 250 mM NaCl, 25°C, read-out: KD.
The mark [10] stands for this setting: PfSpdS saturated with MTA (ligand 1), values for ligand 2.
The mark [11] stands for this setting: PfSpdS saturated with MTA (ligand 1), values for ligand 2, read-out: KD.
Where [12] appears, read: KD, PfSpdS saturated with MTA (ligand 1), values for ligand 2.
The mark [13] stands for this setting: KD, free PfSpdS, 100 mM HEPES pH 7.5, 250 mM NaCl, 25°C.
[14] abbreviates: free PfSpdS, listed as with footnote mark a.
The mark [15] stands for this setting: free PfSpdS, listed as with footnote mark b: fit was done setting N = 1.

Where “and” joins values, the source holds several entries; their conditions need not be identical. Equal entries are not always repeated. Where two headings read alike, the source gives them in different places.

The Kd is the concentration at which binding is half-saturated. One may read the IC50 as the point on the concentration scale where inhibition reaches its midpoint. On to 5′-methylthioadenosine [MTA], for which, in assay [1] (setting [8]), the ΔH was -2.7 ± 0.3 kcal/mol and the ΔS was 18.6 cal/mol/deg. For the same molecule, the dissociation constant Kd in assay [1] (setting [9]) amounted to 0.9 ± 0.5 µM. The IC50 in assay [2] (100 μM dcAdoMet, 200 μM putrescine) was 160 µM and 159 µM. Moreover, the Inhibition type result in assay [2] is “product inhibition”.

With `NCc1ccc(N)cc1` [4AMA, 4-aminomethylaniline], the “inhibitory effects on PfSpdS activity” value in assay [3] was “no or only minor inhibitory effects”. Also, the half-maximal inhibitory concentration (IC50) in assay [3] (read-out: IC50) was above 1000 µM. For the same molecule, the “affinity for free PfSpdS (in words)” value in assay [1] is “no measurable affinity”. In assay [1] (setting [10]), this molecule showed a ΔH of -3.5 ± 0.2 kcal/mol. The same molecule had a ΔS in assay [1] (setting [10]) of 7.84 cal/mol/deg. For the same molecule, the Kd in assay [1] (setting [11]) was 45.3 ± 5.1 µM; in assay [1] (PfSpdS saturated with dcAdoMet (ligand 1), values for ligand 2, read-out: KD) it was above 300 µM; in assay [1] (setting [9]), above 300 µM.

What is called Ki is the equilibrium dissociation constant of an inhibitor or competing ligand from its target. In the case of `Cc1ccc(N)cc1` [4MAN, 4-methylaniline], the results for the IC50 in assay [3] and in assay [4] were 23 µM and 108 µM, respectively. Moreover, affinity in assay [3] was put at a Ki of 8.2 µM. Also, the Inhibition type entry in assay [3] (Lineweaver-Burke plots, 0.1 mM dcAdoMet) was “competitive with putrescine”. In addition, the “affinity for free PfSpdS (in words)” value in assay [1] was “no measurable affinity”. Moreover, the Kd in assay [1] (setting [12]) is above 300 µM; in assay [1] (KD, PfSpdS saturated with dcAdoMet (ligand 1), values for ligand 2), 7.7 ± 1.2 µM; in assay [1] (setting [13]) it was above 300 µM. Further, the “affinity to PfSpdS in presence of MTA (in words)” value in assay [1] (PfSpdS saturated with MTA, detection limit KD ~ 300 μM) is “no detectable affinity”.

As to `C[C@H]1CC[C@H](N)CC1` [4MCHA, trans-4-methylcyclohexylamine], in assay [2], the Inhibition type entry is recorded as “competitive inhibitor with respect to putrescine” and the Ki was 0.18 µM. For the same molecule, in assay [5], the “inhibition of P. falciparum cell growth in vitro (in words)” value is given as “strongly inhibit”.

`NCCCCCC(CCN)SCC1OC(n2cnc3c(N)ncnc32)C(O)C1O` (stereo not drawn) [AdoDATO, S-adenosyl-3-thio-1,8-diaminooctane]: in assay [3], the Inhibition type entry is recorded as “mixed-type inhibition with putrescine” and the Ki uncompetitive was 12.2 µM. In addition, in assay [3] (read-out: Ki competitive), the Ki was 3.4 µM. Besides, the half-maximal inhibitory concentration (IC50) in assay [3] (read-out: predicted IC50 from Eq (2)) is 10 µM. Further, in assay [1] (setting [8]), the ΔH is -5.5 ± 0.2 kcal/mol and the ΔS stood at 6.9 cal/mol/deg. Moreover, the Kd in assay [1] (setting [9]) came out at 2.8 ± 0.5 µM.

For the molecule `NCCCCCc1nc2ccccc2[nH]1` [BIPA, 5-(1H-benzimidazol-2-yl)pentan-1-amine], the IC50 is above 100 µM in assay [3] (PfSpdS assays, L. Persson, unpublished results, read-out: IC50) and above 1000 µM in assay [3] (read-out: IC50). Further, the “inhibitory effects on PfSpdS activity” value in assay [3] is reported as “no or only minor inhibitory effects”. In addition, the ΔH in assay [1] (setting [8]) came to 1.5 ± 0.3 kcal/mol. Further, the ΔS in assay [1] (setting [8]) is 27.1 cal/mol/deg. The Kd in assay [1] (setting [9]) is 15.2 ± 8.2 µM. In addition, the “binding to the enzyme by NMR spectroscopy (in words)” value in assay [6] is reported as “bind strongly”.

`NCCCN[C@H]1CC[C@H](N)CC1` [NACD]: the ΔH is -0.6 ± 0.1 kcal/mol in assay [1] (setting [10]), 51.8 ± 2.5 kcal/mol in assay [1] (setting [14]) and 17.6 ± 9.0 kcal/mol in assay [1] (setting [15]). The ΔS in assay [1] (setting [10]) is on record as 28.4 cal/mol/deg; in assay [1] (setting [14]) it was 196 cal/mol/deg; in assay [1] (setting [15]) it was 82.8 cal/mol/deg. Moreover, the Kd is ~0.3 µM and 0.3 µM in assay [1] (setting [11]); 8.4 ± 0.7 µM in assay [1] (free PfSpdS, listed as with footnote mark a, read-out: KD); 6.1 ± 1.6 µM in assay [1] (free PfSpdS, listed as with footnote mark b: fit was done setting N = 1, read-out: KD).

Broadly, the Km is the concentration of substrate that gives half-maximal velocity. Take `NCCCCN` [Putrescine, putrescine]: the Kd in assay [1] (setting [12]) was 59.5 ± 8.2 µM. The dissociation constant Kd in assay [1] (setting [13]) is above 300 µM. In assay [1] (setting [10]), this molecule showed a ΔH of -12.4 ± 0.9 kcal/mol and a ΔS of -22.4 cal/mol/deg. Moreover, the “affinity for free PfSpdS (in words)” value in assay [1] (free PfSpdS, detection limit KD ~ 300 μM) is recorded as “no measurable affinity”. The Michaelis-Menten constant (Km) in assay [2] (read-out: Km for putrescine, 29-residue-truncated PfSpdS) was 52 µM.

Regarding `NCCCCNCCCN` [Spermidine, spermidine], in assay [1], the “affinity for free PfSpdS (in words)” value is “no measurable affinity”. The dissociation constant Kd in assay [1] (setting [12]) was 1.2 ± 0.3 µM. In addition, in assay [1] (setting [13]), the Kd is above 300 µM. In addition, in assay [1] (setting [10]), the ΔH is recorded as -6.1 ± 0.3 kcal/mol and the ΔS is reported as 6.74 cal/mol/deg.

In assay [1] (setting [13]), `C[S+](CCCN)CC1OC(n2cnc3c(N)ncnc32)C(O)C1O` (stereo not drawn) [dcAdoMet, decarboxylated S-adenosylmethionine] gave a Kd of 3.7 ± 0.7 µM. In assay [1] (setting [8]), this molecule returned a ΔH of -2.4 ± 0.2 kcal/mol and a ΔS of 16.7 cal/mol/deg.

Take `NCCCSC[C@H]1O[C@@H](n2cnc3c(N)ncnc32)[C@H](O)[C@@H]1O` [decarboxylated S-adenosylhomocysteine]: in assay [7], the Kd is 1.1 µM.

The values above are taken from publication PMC5035006, “Binding and Inhibition of Spermidine Synthase from Plasmodium falciparum and Implications for In Vitro Inhibitor Testing” (PLoS ONE, 2016).
